The values below come from patent US8101608B2, “Compounds and compositions as protein kinase inhibitors” (IRM LLC, a Delware Limited Corporation, priority 2004, dated 2012).

Broadly, the IC50 is the concentration needed to halve the response being measured. Read a low IC50 as greater potency in that assay.

The target of one assay is T1, trkC (Homo sapiens, UniProt Q16288).
T1 construct: fused on or other part: P41212 (Transcription factor ETV6)
Kind of assay: Inhibition of cellular ETV6-NTRK3 dependent proliferation (Ba/F3 EN cells). The format is cell-based, murine. To be noted: MTT, read-out: IC50 for TrkC. The protocol:
The murine cell line used is the Ba/F3 hematopoietic progenitor cell line transformed with ETV6-NTRK3 cDNA (Ba/13 EN). These cells are maintained in RPMI/10% fetal calf serum (RPMI/FCS) supplemented with penicillin 50 μg/mL, streptomycin 50 μg/mL and L-glutamine […]. Untransformed Ba/F3 cells are similarly maintained with the addition of 10% of WEHI conditioned medium as a source of IL3.

The next assay addresses T2, c-RAF (Homo sapiens, UniProt P04049).
T2 construct: "active kinase (0.001-0.01 Units); fused on or other part: Probably an N-terminal GST tag (vendor's product)
Kind of assay: Kinase inhibition, Upstate KinaseProfiler radio-enzymatic filter binding assay. The format is biochemical. As for the experimental part:
(§1) Percentage inhibition is calculated for each reaction.

For a further assay, the target named is T3, Aurora-A (Homo sapiens, UniProt O14965).
T3 construct: purchased Upstate (KinaseProfiler panel)
T3 sequence (O14965 1-403): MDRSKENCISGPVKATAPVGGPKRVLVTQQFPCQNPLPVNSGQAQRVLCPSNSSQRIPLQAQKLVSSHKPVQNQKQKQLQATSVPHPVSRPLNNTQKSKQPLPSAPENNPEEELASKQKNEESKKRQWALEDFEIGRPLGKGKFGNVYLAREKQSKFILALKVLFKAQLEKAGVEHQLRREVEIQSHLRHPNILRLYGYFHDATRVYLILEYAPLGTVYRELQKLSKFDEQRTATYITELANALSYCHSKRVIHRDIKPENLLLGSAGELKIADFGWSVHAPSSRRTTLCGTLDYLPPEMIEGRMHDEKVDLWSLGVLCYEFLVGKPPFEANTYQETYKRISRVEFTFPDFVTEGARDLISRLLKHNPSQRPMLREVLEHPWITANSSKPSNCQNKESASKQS
Described as above. It counts as biochemical. The protocol:
as §1

T1 sequence (Q16288 whole entry, change not shown, the tested form may be a part): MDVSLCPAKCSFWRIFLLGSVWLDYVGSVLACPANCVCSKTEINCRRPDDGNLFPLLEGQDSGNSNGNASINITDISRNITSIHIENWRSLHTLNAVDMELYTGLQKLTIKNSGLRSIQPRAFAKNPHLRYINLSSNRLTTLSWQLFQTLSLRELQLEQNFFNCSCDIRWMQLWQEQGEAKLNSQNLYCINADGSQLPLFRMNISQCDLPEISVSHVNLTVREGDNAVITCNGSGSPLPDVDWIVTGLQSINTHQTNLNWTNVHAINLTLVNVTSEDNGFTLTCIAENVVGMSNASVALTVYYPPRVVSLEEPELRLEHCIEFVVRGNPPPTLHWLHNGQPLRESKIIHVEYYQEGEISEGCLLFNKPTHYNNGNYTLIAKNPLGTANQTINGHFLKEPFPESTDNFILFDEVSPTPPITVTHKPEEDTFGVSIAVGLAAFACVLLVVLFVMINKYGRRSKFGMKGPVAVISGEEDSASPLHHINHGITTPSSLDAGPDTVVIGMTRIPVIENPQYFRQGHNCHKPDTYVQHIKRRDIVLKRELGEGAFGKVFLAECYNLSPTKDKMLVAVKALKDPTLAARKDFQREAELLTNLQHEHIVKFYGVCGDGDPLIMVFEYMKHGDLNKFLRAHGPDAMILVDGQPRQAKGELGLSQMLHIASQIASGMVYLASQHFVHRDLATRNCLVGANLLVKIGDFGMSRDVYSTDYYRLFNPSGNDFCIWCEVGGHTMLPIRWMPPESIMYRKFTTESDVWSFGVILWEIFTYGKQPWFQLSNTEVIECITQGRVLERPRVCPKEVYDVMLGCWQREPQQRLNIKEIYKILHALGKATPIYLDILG
T2 sequence (P04049 whole entry Y340D/Y341D, form open, the tested form may be a part): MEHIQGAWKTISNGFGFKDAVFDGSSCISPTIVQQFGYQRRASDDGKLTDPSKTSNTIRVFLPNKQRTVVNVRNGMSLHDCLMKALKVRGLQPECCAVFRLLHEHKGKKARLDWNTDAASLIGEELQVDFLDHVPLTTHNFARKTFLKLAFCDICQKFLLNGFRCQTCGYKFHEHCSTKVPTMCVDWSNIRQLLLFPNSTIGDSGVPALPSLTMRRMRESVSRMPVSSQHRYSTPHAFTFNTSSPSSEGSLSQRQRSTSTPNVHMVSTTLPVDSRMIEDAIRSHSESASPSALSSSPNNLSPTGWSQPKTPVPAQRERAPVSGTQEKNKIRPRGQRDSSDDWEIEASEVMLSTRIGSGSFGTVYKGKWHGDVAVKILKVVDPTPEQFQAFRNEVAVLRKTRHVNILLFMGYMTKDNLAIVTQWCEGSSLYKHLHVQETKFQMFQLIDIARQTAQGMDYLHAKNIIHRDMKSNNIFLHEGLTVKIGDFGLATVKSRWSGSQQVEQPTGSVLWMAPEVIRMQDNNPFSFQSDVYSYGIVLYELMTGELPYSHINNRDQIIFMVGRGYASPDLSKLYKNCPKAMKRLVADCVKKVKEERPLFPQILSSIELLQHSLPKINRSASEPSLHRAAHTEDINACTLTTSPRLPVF

Regarding `Cc1cn(-c2cc(C(=O)Nc3cccc(Nc4ccc5c(c4)NC(=O)/C5=C/c4ccc[nH]4)c3)cc(C(F)(F)F)c2)cn1` [Example 1], on trkC, the GI50 stood at 16.7 nM. Also, the IC50 was determined as 116 nM on c-RAF and 15 nM at Aurora-A.
